Data on two compounds can be found in patent US11666554B2, “Use of a carbamate compound to prevent, alleviate or treat visceralgia or pain arising from visceral disease” (SK BIOPHARMACEUTICALS CO., LTD., priority 2017, dated 2023).

Marks after values point to notes of the source that are not given here.

For the experiment, the system named is Male ICR mice. The experiment can be described thus: Acetic acid-induced writhing test. Format: in vivo. The following applies: for Number of writhing: mean ± standard error. The method, then: As a representative animal experimental model widely used to confirm the analgesic effect on visceral pain, an acetic acid-induced writhing test is used [T. J. Ness, Models of Visceral Nociception (1999) ILAR Journal 40: 119-128]. At this time, acetic acid is a chemical that is a stimulus used to induce pain, and when it is injected into the abdominal cavity of the mouse, characteristic writhing pain behaviors are induced in which due to the inflammatory pain caused in the peritoneum the mouse stretches both the forelimbs and the hind legs, and touches the abdomen to the floor or twists. However, when a drug having an analgesic effect, such as morphine, is injected into a mouse, the writhing pain behaviors of the mouse is reduced. As such, the degree of decreasing the writhing pain behaviors is measured to confirm the analgesic effect of the drug.
Male ICR mice (body weight: 24 to 30 g) were used in this experiment. The experimental animals were maintained at a light-and-darkness cycle of 12 hours, a temperature of 22 to 25° C., a relative humidity of 40 to 60%, and free access to water and food. For stabilization of animal behavior, the experimental animals were allowed to acclimate to the laboratory conditions for at least 1 hour before the test.
As a vehicle serving as the negative control, 30% PEG400 (v/v) was used, and Test Compound was dissolved in the vehicle and administered orally at doses of 3, 10 and 30 mg/kg. Morphine which is the positive control was dissolved in saline and administered subcutaneously at a dose of 10 mg/kg. The final dose of solution was 10 ml/kg.
After 1 hour of oral administration of the vehicle and Test Compound or 30 minutes after subcutaneous administration of morphine, the mice were gently restrained, and 0.8% (v/v) acetic acid solution was administered intraperitoneally to the abdomen of the mice. The mice were immediately returned to the observation box, and the number of writhing pain behaviors of the mice for 10 minutes was recorded.
The effect of the compound was expressed as the mean±standard error, and statistical significance was recognized when data differed by p<0.05 using one-way ANOVA and Dunnett's test.
A general note: Writhing tests count abdominal constrictions after an irritant is injected.

On to `CN1CC[C@]23c4c5ccc(O)c4O[C@H]2[C@@H](O)C=C[C@H]3[C@H]1C5` [Morphine, reference compound], for which the “Suppression rate compared to negative control” value runs as follows: (10 mg/kg s.c.) 98.2%; (10 mg/kg s.c., listed as morphine) 98.2%. Besides, the Number of writhing (10 mg/kg s.c., 30 minutes before i.p. 0.8% acetic acid) is reported as 0.4 ± 0.3^1) writes/10 minutes.
With `NC(=O)O[C@@H](Cn1ncnn1)c1ccccc1Cl` [Test Compound, Carbamic acid (R)-1-(2-chlorophenyl)-2-tetrazol-2-yl-ethyl ester], the “Suppression rate compared to negative control” value reads like this: (3 mg/kg p.o.) 25.8%; (10 mg/kg p.o.) 66.1%; (30 mg/kg p.o.) 100%. Also, the Number of writhing reads like this: (3 mg/kg p.o., 1 hour before i.p. 0.8% acetic acid) 17.3 ± 2.6 writes/10 minutes; (10 mg/kg p.o., 1 hour before i.p. 0.8% acetic acid) 7.9 ± 2.4^1) writes/10 minutes; (30 mg/kg p.o., 1 hour before i.p. 0.8% acetic acid) 0.0 ± 0.0^1) writes/10 minutes.
